“And” between values parts separate entries of the source, which are not always exact repeats. Identical values can stand only once. Values belong to the compound of their own block, whether it stands above or below them.
Legend:
rat mesenteric artery = experiment: Vasodilation on rat mesenteric small arteries; details: relaxation of small arteries (200-300 µm) precontracted with endothelin
From the text: Small arteries (200-300 µm in diameter) isolated from rat mesentery were precontracted with endothelin prior to addition of the test substances and tested for relaxation.

[1] = Brine shrimp toxicity bioassay; type: in vivo; details: Artemia salina (brine shrimp), in vivo; 24 hours, 2% DMSO
From the text: (§1) The brine shrimp assay procedure determines LC50 values of active compounds. Activities of a broad range of known active compounds are manifested as toxicity to brine shrimp (Artemia salina Leach). There are many applications of the assay including analysis of toxic substances, anaesthetics, morphine-like substances and cocarcinogenicity of phorbol esters.
(§2) The method for testing solvent toxicity used was basically that reported by J L McLaughlin in Methods of Plant Biochemistry (1991), vol. 6 (K Hostettman, ed.), Academic Press, London, 1-32. DMSO solutions of the substances to be tested were added directly to the vials containing the brine shrimp. As the concentration of DMSO that we wished to use was higher than the recommended 1% v/v testing of the toxicity of the DMSO was therefore necessary. The concentrations of DMSO tested on the shrimp, along with the results from the assay which was done in duplicate are listed below.
(§3) Brine shrimp toxicity was assayed, except for some minor modifications, according to the method of McLaughlin et al as reported in Brine Shrimp: A convenient bioassay for active plant constituents, B N Meyer, N R Ferrigni, J E Putnam, L B Jacobsen, D E Nichols and J L McLaughlin in Planta Medica (1982), 45, 31-34 and Crown gall tumours on potato discs and brine shrimp lethality: Two simple bioassays for higher plant screening and fractionation. J L McLaughlin. Methods of Plant Biochemistry (1991), vol. 6 (K Hostettman, ed.), Academic Press, London, 1-32. Ten shrimp were transferred to each of the vials and the volume adjusted to 4.9 mL. Each dose was performed in triplicate, including the control. In quick succession, the appropriate volume of additional DMSO for each dose, required to achieve a final concentration of 2%, was added before the appropriate volume of test solution. The vials were gently mixed and the time noted. After 24 hours, the number of survivors were counted and % mortality was determined. The test compounds were assayed at concentrations of 100 µM, 25 µM, 5 µM, 1 µM and 0.2 µM (and where appropriate concentrations of 0.04 µM and 0.008 µM).
(§4) The brine shrimp were able to survive without food in the vials over the 24 hour period and were therefore not fed.
(§5) The dose-response curves were constructed using the Sigmaplot computer program and the LC50 value was calculated from the intersection point of the curve and the 50 % mortality line. The LC50 values were expressed in both µM and µg/mL.

Lipoxygenase (LP) = target: T1, Lipoxygenase (LP) (Rattus norvegicus, UniProt P12527); experiment: Lipoxygenase assay with cell-free enzyme from RBL 2H3 cells (EIA); type: biochemical; details: final concentration of 10 µM
T1 construct: cell-free enzyme (Wong et al, 1991) prepared from rat basophilic leukemia (RBL) 2H3 cell lines; endogenous in cells; host or cells: RBL 2H3 (rat basophilic leukemia), 15,000 g supernatant of cells disrupted by nitrogen cavitation
T1 sequence (P12527 1-673): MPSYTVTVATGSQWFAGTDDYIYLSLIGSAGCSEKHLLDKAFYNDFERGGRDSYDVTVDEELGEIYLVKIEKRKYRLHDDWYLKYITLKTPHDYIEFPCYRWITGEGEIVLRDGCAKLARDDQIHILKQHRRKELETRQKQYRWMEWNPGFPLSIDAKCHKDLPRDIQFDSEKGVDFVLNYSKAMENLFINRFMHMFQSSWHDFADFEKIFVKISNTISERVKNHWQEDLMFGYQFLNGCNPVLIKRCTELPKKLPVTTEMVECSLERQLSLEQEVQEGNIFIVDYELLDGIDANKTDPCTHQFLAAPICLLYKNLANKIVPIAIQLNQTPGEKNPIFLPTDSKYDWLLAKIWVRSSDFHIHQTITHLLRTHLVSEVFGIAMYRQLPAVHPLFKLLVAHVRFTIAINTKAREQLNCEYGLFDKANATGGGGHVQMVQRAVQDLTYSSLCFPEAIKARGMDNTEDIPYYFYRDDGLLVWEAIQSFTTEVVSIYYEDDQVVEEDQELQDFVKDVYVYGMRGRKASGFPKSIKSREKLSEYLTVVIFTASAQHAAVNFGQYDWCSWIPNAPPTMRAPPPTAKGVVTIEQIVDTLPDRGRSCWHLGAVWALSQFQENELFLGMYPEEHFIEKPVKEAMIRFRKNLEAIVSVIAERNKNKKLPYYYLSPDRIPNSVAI
Protocol: Lipoxygenase (LP) assay was performed with cell-free enzyme (Wong et al, 1991) prepared from rat basophilic leukemia (RBL) 2H3 cell lines. Cells were cultured in EMEM containing 10% fetal calf serum and antibiotic until cells reached confluence. Harvested cells were resuspended in Hepes (10 mM) buffer, pH 7.4, containing 1 mM EDTA at 1 x 10^7 cells/ml, and disrupted by nitrogen cavitation using a Parr bomb at 750 psi for 15 min. The broken cells were centrifuged at 15,000 g for 30 min. Aliquots (0.1 ml) of the supernatant were preincubated with or without drugs in Hepes buffer (10 mM Hepes, pH 7, 1 mM EDTA and 150 mM NaCl) for 5 min, and the reaction was initiated with the addition of 50 µl of CaCl2 (16 mM), 50 µl of ATP (2 mM), 5 µl of PAF (2.5 mg/ml) and 5 µl of AA (2.5 mM). The reaction mixture ([…]) was incubated at room temperature for a further 8 min, then diluted with EIA buffer at 1/200 and 1/2000 dilutions and stored on ice for EIA following the protocol provided with the kit.
Validation of LP enzyme activity was carried out by a UV spectrophotometric method in which the enzyme activity was characterised against various concentrations of Ca^2+, ATP, PAF and AA with the measurement of the formation of diene conjugated products of LP at 235 nm.
All compounds were dissolved in DMSO and assayed at a final concentration of 10 µM. NDGA was used as reference compound. The concentration of DMSO in the assay was maintained at 1.5%.

guinea pig atria = experiment: Organ bath assay on isolated guinea pig atria (rate and force of contraction); details: guinea pig atria
Protocol: Male guinea pigs, 3-4 weeks old, were killed by rapid cervical dislocation without induced anaesthesia. Then, the guinea pigs were dissected to isolate the atria which were immediately mounted vertically in an organ bath containing Krebs-Henseleit solution oxygenated with carbogen.
One gram tension was applied to the atria and the base line continuously adjusted until it was stable for 20 mins. The rate and force of contraction were recorded using Mac Lab equipment.
Test substances in DMSO were assayed to a maximum concentration of 50 µM at a final concentration of 2.5 % of DMSO.

SR Ca^2+-ATPase = target: T2, SR Ca^2+-ATPase (Canis lupus familiaris, UniProt O46674); experiment: Sarcoplasmic reticulum Ca^2+-ATPase assay; type: biochemical, dog; details: for SR Ca^2+-ATPase Activity: 0 µM = 100, dog cardiac SR; for IC50: read-out: SR Ca^2+-ATPase IC50 = conc. for 50% inhibition
T2 construct: Effect of gingerols and their derivatives on the Ca^2+-ATPase activity of dog cardiac SR; from tissue; host or cells: dog heart (cardiac sarcoplasmic reticulum)
Protocol: A portion at each concentration (54 µl) was aliquoted into 4 designated wells of the microplate (two of four wells were controls). Each well was mixed with ATP solution (20 mM, 6 µl), except the controls, using an 8 channel pipette. The controls were assayed in the absence of ATP or calcium.
The plate was incubated with the lid on, for 30 min at 37°C, colour reagent (160 µl) was then added and mixed with citrate solution (34%, 30 µl). The plate was developed at room temperature for 30 min then absorbance at 655 nm was read from the microplate reader. The Ca^2+-ATPase activity was quantitated, from a Pi standard curve, as concentration of liberated inorganic phosphate.
Stock solutions (10 mM) of test substance were prepared in DMSO, then series dilutions were made either in DMSO or in 1M HEPES to produce the dose-response concentrations. The maximum concentration of DMSO in the final assay solution was 2.5%.
Each concentration of test substance was assayed in duplicate in the presence and absence of ATP or calcium. Phosphate standards are run on each plate as follows:
Effect of gingerols and their derivatives on the Ca^2+-ATPase activity of dog cardiac SR.

[2] = system: brine shrimp (Artemia salina Leach); experiment: Brine shrimp toxicity bioassay; type: in vivo
From the text: as §1, §2, §3, §4, §5

T2 sequence (O46674 whole entry): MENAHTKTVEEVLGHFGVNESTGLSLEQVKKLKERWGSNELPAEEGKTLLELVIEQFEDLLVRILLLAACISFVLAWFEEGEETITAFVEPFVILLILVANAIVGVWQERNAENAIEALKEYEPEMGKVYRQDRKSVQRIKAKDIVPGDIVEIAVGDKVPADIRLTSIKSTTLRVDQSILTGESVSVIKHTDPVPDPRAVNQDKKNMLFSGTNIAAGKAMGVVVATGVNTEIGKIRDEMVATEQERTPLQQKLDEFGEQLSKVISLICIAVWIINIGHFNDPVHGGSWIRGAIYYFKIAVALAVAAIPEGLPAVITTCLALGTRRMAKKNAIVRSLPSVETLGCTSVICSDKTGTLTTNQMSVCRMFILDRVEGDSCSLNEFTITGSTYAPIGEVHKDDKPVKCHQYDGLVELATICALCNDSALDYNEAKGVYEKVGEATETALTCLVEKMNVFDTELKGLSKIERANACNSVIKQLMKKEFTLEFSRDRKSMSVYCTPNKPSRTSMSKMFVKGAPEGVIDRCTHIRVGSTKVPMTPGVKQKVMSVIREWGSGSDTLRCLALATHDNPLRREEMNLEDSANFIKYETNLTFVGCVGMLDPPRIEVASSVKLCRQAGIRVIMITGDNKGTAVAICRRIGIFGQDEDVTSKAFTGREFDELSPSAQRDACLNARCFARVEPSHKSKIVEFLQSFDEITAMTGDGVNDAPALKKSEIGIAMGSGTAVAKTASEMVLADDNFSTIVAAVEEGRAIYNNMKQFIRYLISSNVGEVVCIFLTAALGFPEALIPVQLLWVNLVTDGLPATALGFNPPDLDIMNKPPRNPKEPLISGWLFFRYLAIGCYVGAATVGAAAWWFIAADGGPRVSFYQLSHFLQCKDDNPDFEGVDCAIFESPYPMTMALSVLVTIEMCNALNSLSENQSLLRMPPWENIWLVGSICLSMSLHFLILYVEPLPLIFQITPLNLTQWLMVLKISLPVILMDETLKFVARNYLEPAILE

Structure (SMILES): CCCCCCCCCC(O)CCc1ccc(O)c(OC)c1 (single isomer, unassigned) [enantiomer-2, 1-(4-hydroxy-3-methoxyphenyl)dodecan-3-ol]
EC50 (rat mesenteric artery; Rattus norvegicus): 0.32 µM

Structure (SMILES): CCCCCCCCCC(O)CCc1ccc(O)c(OC)c1 (single isomer, unassigned; enantiomer-1) [enantiomer-1, enantiomer-1 of 1-(4-hydroxy-3-methoxyphenyl)dodecan-3-ol]
EC50 (rat mesenteric artery): 0.5 µM

activity at 10 µM (Lipoxygenase (LP)): 2%
Structure (SMILES): CCCCCCCC=CC(=O)C=Cc1ccc(O)c(OC)c1 [1-(4-hydroxy-3-methoxyphenyl)dodecane-1,4-diene-3-one]
LC50 at 24 h [1]: 5.4 µM and 1.6 µg/mL

SR Ca^2+-ATPase Activity (SR Ca^2+-ATPase; 1 µM): 122 | SR Ca^2+-ATPase Activity (SR Ca^2+-ATPase; 5 µM): 111 | SR Ca^2+-ATPase Activity (SR Ca^2+-ATPase; 10 µM): 133 | SR Ca^2+-ATPase Activity (SR Ca^2+-ATPase; 25 µM): 147 | SR Ca^2+-ATPase Activity (SR Ca^2+-ATPase; 50 µM): 158 | SR Ca^2+-ATPase Activity (SR Ca^2+-ATPase; 100 µM): 149 | SR Ca^2+-ATPase ↑ increase or stimulation (SR Ca^2+-ATPase; @ 10 µM): ↑60% @ 10 | IC50 (SR Ca^2+-ATPase): 50 µM
Structure (SMILES): CCCCCCCCCC(O)CC(=O)c1ccc(O)c(OC)c1 (stereo not shown) [3-hydroxy-1-(4-hydroxy-3-methoxyphenyl)dodecan-1-one]
FORCE OF CONTRACT^n ↑ increase (guinea pig atria; @ 30 (µM)): ↑11% @ 30 | LC50 at 24 h [1]: 10 µM and 3.2 µg/mL

Structure (SMILES): CCCCCCCC(O)CC(=O)C=Cc1ccc(O)cc1 (stereo not shown) [5-hydroxy-1-(4-hydroxyphenyl)dodecan-1-ene-3-one]
LC50 at 24 h [1]: 2.6 µM and 0.75 µg/mL

Structure (SMILES): C[S+](C)[O-] [DMSO, dimethyl sulfoxide]
% Deaths ([2]; Conc 1 % v/v): 0% | % Deaths ([2]; Conc 2 % v/v): 0% | % Deaths ([2]; Conc 3 % v/v): 0% | % Deaths ([2]; Conc 4 % v/v): 0% | % Deaths ([2]; Conc 5 % v/v): 9% | % Deaths ([2]; Conc 7 % v/v): 12% | % Deaths ([2]; Conc 9 % v/v): 18% | % Deaths ([2]; Conc 11 % v/v): 57% | % Deaths ([2]; Conc 13 % v/v): 96% | % Deaths ([2]; Conc 15 % v/v): 100% | % Deaths ([2]; Conc 20 % v/v): 100% | % Deaths ([2]; Conc 25 % v/v): 100%

IC50 (SR Ca^2+-ATPase): > 100 µM
Structure (SMILES): CCCCCC(O)CC(=O)CCc1ccc(O)cc1 (stereo not shown) [[6]-demethoxygingerol, 5-hydroxy-1-(4-hydroxyphenyl)decan-3-one]
FORCE OF CONTRACT^n (guinea pig atria; result in words): inactive | HEART RATE (guinea pig atria; result in words): inactive | LC50 at 24 h [1]: > 100 µM and > 26 µg/mL
